Source: patent publication US7727933B2, “2-ethyl-4,6-dimethyl-phenyl-substituted spirocyclic tetramic acid derivatives” (Bayer CropScience AG, priority 2003, dated 2010)

Key:
Format in all cases: in vivo
Summer barley = experiment: Herbicidal post-emergence action with use of safeners (Example B), crop plant compatibility; details: without safener, rated 3-4 weeks after treatment
Experimental: Seeds of monocotyledonous and dicotyledonous weed and crop plants are placed into sandy loam in wood fibre pots or in plastic pots, covered with soil and cultivated in a greenhouse, during the vegetation period also outdoors outside of the greenhouse, under good growth conditions. 2-3 weeks after sowing, the test plants are treated at the one- to three-leaf stage. The test compounds, formulated as wettable powders (WP) or emulsifiable concentrates (EC) are, in various dosages with a water application rate of 300 l/ha (converted), with wetting agent (0.2 to 0.3%) added, sprayed onto the plants and the surface of the soil. 3-4 weeks after the treatment of the test plants, the effect of the preparations is rated visually in comparison to untreated controls (herbicidal effect in percent (%): 100% effect=the plants have died, 0% effect=like control plants). […]

Avena sativa = experiment: Herbicidal post-emergence action (Example A); details: 320 g of a.i./ha, rated visually after about 3 weeks, 100% = plants have died
Experimental: (§1) Seeds of monocotyledonous and dicotyledonous weed and crop plants are placed into sandy loam in wood fibre pots, covered with soil and cultivated in a greenhouse under good growth conditions. 2-3 weeks after sowing, the test plants are treated at the one-leaf stage. The test compounds, formulated as wettable powders (WP), are, in various dosages with a water application rate of 600 l/ha (converted), with 0.2% of wetting agent added, sprayed onto the green parts of the plants. After the test plants were kept in the greenhouse under optimum growth conditions for about 3 weeks, the effect of the preparations is rated visually in comparison to untreated controls (herbicidal effect in percent (%): 100% effect=the plants have died, 0% effect=like control plants).

Lolium = experiment: Herbicidal post-emergence action (Example A); details: 320 g of a.i./ha, rated visually after about 3 weeks, 100% = plants have died
Experimental: as §1

Setaria = experiment: Herbicidal post-emergence action (Example A); details: 320 g of a.i./ha, rated visually after about 3 weeks, 100% = plants have died
Experimental: as §1

## CCc1cc(C)cc(C)c1C1=C(OC(=O)COC)C2(CCC(OC)CC2)NC1=O (centres unmarked) [Ex. I-b-1]
Summer barley; 12.5 g of a.i./ha
  Summer barley observed (%): 65%
Summer barley; 25 g of a.i./ha
  Summer barley observed (%): 93%
Avena sativa
  herbicidal effect in percent, Avena sativa: 100%
Lolium
  herbicidal effect in percent, Lolium: 100%
Setaria
  herbicidal effect in percent, Setaria: 90%
